The test system of one data set is Huh-Luc-Neo cells. The data set is described as follows: Cell Titer-Glo Cell Viability Assay. It is filed as cell-based, human. To be noted: for Toxicity % Inhibition at 50 μM (2 doses): inhibition of cell viability at 50 μM, conditions identical to HCV Replicon RNA Assay; for Toxicity % Inhibition at 100 μM (1 dose): inhibition of cell viability at 100 μM, conditions identical to HCV Replicon Luciferase Assay (48 h). Here is the method: (§1) Day 2, Reagent Preparation and Luciferase Assay: The Bright-Glo Luciferase Assay Buffer (Promega) is thawed and equilibrated to room temperature prior to use. The lyophilized Bright-Glo Luciferase Assay Substrate is equilibrated to room temperature prior to use. 10 ml of Bright-Glo Luciferase Assay Buffer is transferred to 1 vial of Bright-Glo Luciferase Assay Substrate bottle and mixed by gently with a Vortex. 100 ul of Bright-Glo Luciferase Assay reagent (Bright-Glo Luciferase Assay Buffer+Bright-Glo Luciferase Assay Substrate Mixture) is added to each well. The well contents are mixed for 5 min. on an orbital shaker at room temperature to induce cell lysis and the luminescence is then measured using a luminometer. The data is analyzed and IC50s are determined using GraphPad Prism 4 software. Hits validated in the Replicon Luciferase assay have IC50s<8.0 μM and show <30% inhibition of Cell Viability at a compound concentration of 100 μM (Cell Titer Glow Assay, cell viability assay conditions identical to HCV Replicon Luciferase Assay conditions).
(§2) Day 3, Quantitative PCR Based Measurement of HCV RNA (Taqman Assay): Quantitative PCR analysis to measure HCV RNA expression from cDNA synthesized on Day 2 is performed using the ABI 9700 HT Sequence Detection System (Applied Biosystems) as previously described (Lohman et al, Science 285, 110-113, 1999). The data is analyzed and IC50s are determined using GraphPad Prism 4 software. Hits validated in the Replicon RNA Assay have IC50s<8.0 μM and show <30% inhibition of Cell Viability at a compound concentration of 50 μM (Cell Titer Glow Assay, cell viability assay conditions identical to HCV Replicon RNA Assay conditions).
Day 0, Cell Seeding and Compound Treatment: Huh-Luc-Neo Cells are seeded at 25,000/well in an opaque-walled 96 plate with Growth Medium (DMEM phenol red free+PS+2 mM glutamine; 100 ul/well).
Day 2, Reagent Preparation and Assay: The CellTiter-Glo Buffer is thawed and equilibrated to room temperature prior to use. The lyophilized CellTiter-Glo Substrate is equilibrated to room temperature prior to use. 10 ml of CellTiter-Glo Buffer is transferred to 1 vial of CellTiter-Glo Substrate and mixed by gently with a Vortex. 100 μl of CellTiter-Glo Assay reagent (CellTiter-Glo Buffer+CellTiter-Glo Substrate Mixture) is added to each well. The well contents are mixed for 5 min. on an orbital shaker at room temperature to induce cell lysis and the luminescence is then measured using a luminometer.

Data set [1] relates to HCV RNA (HCV Replicon) in Huh-Luc-Neo cells. The data set is described as follows: HCV Replicon RNA Assay (Taqman quantitative PCR). It is filed as cell-based. Particulars: 2 compound treatments over 48 h, no unit printed in table (b307 gives IC50s in μM). Here is the method: (§3) The identification of inhibitors of HCV replication and/or proliferation has been facilitated by the development of a cell based system to study HCV replication and assay for HCV inhibitors. Inhibition of HCV replication may be performed using the HCV Replicon Assay developed in the laboratories of Bartenschlager (Lohman et al, Science 285, 110-113, 1999) and Rice (Blight et al, Science 290, 1972-1974, 2000). The assay is performed using the Huh-Luc-Neo cell line (Lohman et al, Science 285, 110-113, 1999). Huh-Luc-Neo cells are a human hepatoma cell line (Huh-7) stably expressing a bi-cistronic subgenomic replicon containing the HCV IRES in which the […] of HCV had been deleted and replaced by a construct containing sequences coding for the firefly luciferase reporter gene, the neomycin selectable marker and the EMCV IRES to direct expression of a truncated HCV genome expressing the […] NS3, NS4A, NS4B, NS5A, and NS5B. HCV targets through which inhibitors could act to inhibit replication include the NS3 protease, the helicase/ATPase, NS5A, the NS5B-RNA dependent RNA polymerase, and the HCV IRES.
(§4) Expression of HCV IRES driven luciferase reporter activity and HCV RNA is measured to obtain indirect and direct measures of replication of HCV RNA respectively. Inhibitors of HCV replication and/or proliferation are determined by initially identifying molecules that inhibit expression of the HCV IRES driven luciferase reporter in this HCV Replicon Luciferase Assay. Cell viability assays and control cell based luciferase assays are then run on hits identified in the HCV Replicon Luciferase Assay to eliminate cytoxic compounds and non-specific compounds which act by inhibiting the luciferase enzyme.
Day 0, Cell Seeding and Compound Treatment: Huh-Luc-Neo Cells are seeded at 25,000/well in an opaque-walled 96 plate with Growth Medium (DMEM phenol red free+PS+2 mM glutamine; 100 μl/well). The compounds to be tested are added to the experimental wells (10 μl/well at 10× assay concentration) and the cells are then incubated (5% CO2, 37° C.).
Day 1, Media Change and Compound Treatment: 24 hours after the initial compound treatment the cell culture media is aspirated from the wells and fresh Growth Medium is added (DMEM phenol red free+PS+2 mM glutamine; 100 μl/well). The compounds to be tested are then added to the appropriate experimental wells (10 μl/well at 10× assay concentration) and the cells are then incubated (5% CO2, 37° C.) for an additional 24 hrs.
Day 2, RNA Isolation and cDNA Synthesis: The cells are washed with 1× Phosphate Buffered Saline (PBS) once.
as §2
In general terms: Replicon systems follow genome replication, usually without infectious particles.

For data set [2], the system named is HCV Replicon (HCV IRES driven luciferase reporter) in Huh-Luc-Neo cells. The data set is described as follows: HCV Replicon Luciferase Assay. It is filed as cell-based. Particulars: 48 h, Huh-Luc-Neo cells, no unit printed in table (b301 gives IC50s in μM), read-out: Luciferase IC50. On the procedure: as §3, §4
Day 0, Cell Seeding and Compound Treatment: Huh-Luc-Neo Cells are seeded at 25,000/well in an opaque-walled 96 plate with Growth Medium (DMEM phenol red free+PS+2 mM glutamine; 100 μl/well). The compounds to be tested are added to the experimental wells (10 μl/well at 10× assay concentration) and the cells are then incubated (5% CO2, 37° C.) for 48 h.
as §1

The values below come from patent US8329703B2, “Pyrazole compounds” (XTL Biopharmaceuticals Ltd., priority 2005, dated 2012).

Values joined by “and” are separate entries in the source; they are usually repeats but may differ in a detail not shown here. Equal entries are not always repeated. Where two headings read alike, the source gives them in different places.

The IC50 is the point on the concentration scale where inhibition reaches its midpoint. Take `Cc1ccc(O)c(-c2nn(C)cc2C#CC2=CCCCC2)c1` [VQ_23307]: in the data set on Huh-Luc-Neo cells, the “Toxicity % Inhibition at 50 μM (2 doses)” value turned out to be 14.8% and the “Toxicity % Inhibition at 100 μM (1 dose)” value came to 44.8%. Moreover, the IC50 in data set [1] (Hepatitis C virus, 48 h) is 8.1 µM. Also, in data set [2] (Hepatitis C virus), the IC50 amounted to 7.25 µM.
For `Cc1ccc(O)c(-c2nn(C)cc2C#CC(C)(C)C)c1` [VQ_23310], the “Toxicity % Inhibition at 50 μM (2 doses)” value in the data set on Huh-Luc-Neo cells was 7.1%. The “Toxicity % Inhibition at 100 μM (1 dose)” value in the data set with Huh-Luc-Neo cells stood at 33.3%. Besides, the 50% inhibitory concentration (IC50) in data set [1] (Hepatitis C virus, 48 h) was 1.15 µM; in data set [2] (Hepatitis C virus), 7.21 µM.
For `COc1ccc(C#Cc2cn(C)nc2-c2cc(Cl)ccc2O)cc1` [VQ_23317], in that order: 2.1%, 10.7%, 2.7 µM and 4.37 µM.
For the compound `Cn1cc(C#CC(C)(C)C)c(-c2cc(Cl)ccc2O)n1` [VQ_23322], in the data set with Huh-Luc-Neo cells, the “Toxicity % Inhibition at 50 μM (2 doses)” value was 1.5% and the “Toxicity % Inhibition at 100 μM (1 dose)” value worked out at 21.5%. The IC50 in data set [1] (Hepatitis C virus, 48 h) stood at 2.47 µM. For the same compound, in data set [2] (Hepatitis C virus), the concentration for half-maximal inhibition (IC50) turned out to be 2 µM.
Taken in the same sequence, the figures for `CCCCCC#Cc1cn(C)nc1-c1cc(Cl)ccc1O` [VQ_23324] were 8.8%, 39.8%, 0.03 µM and 5.51 µM.
For `COc1ccc(C#Cc2cn(C)nc2-c2cc(Cl)c(C)cc2O)cc1` [VQ_23374], in that order: 13.0%, 19.1%, 5.7 µM and 3.92 µM.
On to `COCC#Cc1cn(C)nc1-c1cc(Cl)c(C)cc1O` [VQ_23382], for which the “Toxicity % Inhibition at 100 μM (1 dose)” value with Huh-Luc-Neo cells was 18.5% and 16.2%. The concentration for half-maximal inhibition (IC50) in data set [1] came out at 2.26 µM; in data set [1] (Hepatitis C virus, 48 h), 3.03 µM.
As to `Cn1cc(C#CCC2CCCCC2)c(-c2ccccc2O)n1` [VQ_23705], in the data set on Huh-Luc-Neo cells, the “Toxicity % Inhibition at 50 μM (2 doses)” value was found to be 14.7% and the “Toxicity % Inhibition at 100 μM (1 dose)” value is given as 26.4%. The compound further came in with an IC50 in data set [1] (Hepatitis C virus, 48 h) of 1.1 µM. The half-maximal inhibitory concentration (IC50) in data set [2] (Hepatitis C virus) came out at 6.47 µM.
As for `Cn1cc(C#Cc2ccc(N)cc2)c(-c2ccccc2O)n1` [VQ_23708], in the data set on Huh-Luc-Neo cells, the “Toxicity % Inhibition at 50 μM (2 doses)” value was found to be 21.8% and the “Toxicity % Inhibition at 100 μM (1 dose)” value is given as 63.8%. The IC50 in data set [1] (Hepatitis C virus, 48 h) was 0.7 µM. For the same compound, the IC50 in data set [2] (Hepatitis C virus) was determined as 0.55 µM.
For `Cc1ccc(O)c(-c2nn(C)cc2C#Cc2ccc(N)cc2)c1` [VQ_23714], in that order: 33.4%, 31.5%, 0.1 µM and 1.16 µM.
In the case of `Cn1cc(C#Cc2ccc(N)cc2)c(-c2cc(Cl)ccc2O)n1` [VQ_23720], the “Toxicity % Inhibition at 50 μM (2 doses)” value in the data set on Huh-Luc-Neo cells is given as 32.6%. The “Toxicity % Inhibition at 100 μM (1 dose)” value with Huh-Luc-Neo cells was found to be 49.2%. Besides, the 50% inhibitory concentration (IC50) in data set [1] (Hepatitis C virus, 48 h) turned out to be 0.3 µM; in data set [2] (Hepatitis C virus), 1.28 µM.
Taken in the same sequence, the figures for `Cc1cc(O)c(-c2nn(C)cc2C#CCCCC#N)cc1Cl` [VQ_24691] were 28.3%, 21.1%, 0.09 µM and 5.13 µM.
Turning to `CCCCCCNc1ccc([N+](=O)[O-])cc1-c1nn(C)cc1C#CC(C)(C)C` [VQ_36663], in the data set on Huh-Luc-Neo cells, the “Toxicity % Inhibition at 50 μM (2 doses)” value came to 23.8% and the “Toxicity % Inhibition at 100 μM (1 dose)” value is recorded as 15.5%. For the same compound, in data set [1] (Hepatitis C virus, 48 h), the IC50 was determined as 0.75 µM.
For the compound `COc1ccc(S(=O)(=O)Nc2ccc([N+](=O)[O-])cc2-c2nn(C)cc2C#CC(C)(C)C)cc1` [VQ_36877], in the data set on Huh-Luc-Neo cells, the “Toxicity % Inhibition at 100 μM (1 dose)” value is 10.9%. For the same compound, the concentration for half-maximal inhibition (IC50) in data set [2] (Hepatitis C virus) turned out to be 0.2 µM.
Turning to `Cn1cc(C#CC(C)(C)C)c(-c2cc([N+](=O)[O-])ccc2NCc2ccccc2C#N)n1` [VQ_36885], the “Toxicity % Inhibition at 100 μM (1 dose)” value with Huh-Luc-Neo cells is reported as 35.7%. In data set [2] (Hepatitis C virus), the IC50 was 0.03 µM.
Take `Cn1cc(C#CC(C)(C)C)c(-c2cc([N+](=O)[O-])ccc2NCc2c(Cl)cccc2Cl)n1` [VQ_36886]: the “Toxicity % Inhibition at 100 μM (1 dose)” value in the data set on Huh-Luc-Neo cells came out at 12.6%. Also, the IC50 in data set [2] (Hepatitis C virus) came to 0.19 µM.
In the case of `Cn1cc(C#CC(C)(C)C)c(-c2cc([N+](=O)[O-])ccc2NCc2c(F)c(F)cc(F)c2F)n1` [VQ_36887], the “Toxicity % Inhibition at 100 μM (1 dose)” value with Huh-Luc-Neo cells is reported as 18.7%. For the same compound, the IC50 in data set [2] (Hepatitis C virus) was 0.06 µM.
Taken in the same sequence, the figures for `Cn1cc(C#CC(C)(C)C)c(-c2cc([N+](=O)[O-])ccc2NCc2ccc(I)cc2)n1` [VQ_36893] were 16.6% and 0.09 µM.
Taken in the same sequence, the figures for `Cn1cc(C#CC(C)(C)C)c(-c2cc([N+](=O)[O-])ccc2NCc2c(F)c(F)c(F)c(F)c2F)n1` [VQ_36894] were 12.5% and 0.12 µM.
For `Cn1cc(C#CC(C)(C)C)c(-c2cc([N+](=O)[O-])ccc2NCc2cccc3ccccc23)n1` [VQ_36895], in that order: 10.4% and 0.1 µM.
`Cn1cc(C#CC(C)(C)C)c(-c2cc([N+](=O)[O-])ccc2NC(=O)c2cc(C(F)(F)F)ccc2F)n1` [VQ_36905]: in the data set on Huh-Luc-Neo cells, the “Toxicity % Inhibition at 100 μM (1 dose)” value came to 10.9%. The IC50 in data set [2] (Hepatitis C virus) was determined as 1.63 µM.
Consider `Cn1cc(C#CC(C)(C)C)c(-c2cc([N+](=O)[O-])ccc2NC(=O)c2ccccc2C(F)(F)F)n1` [VQ_36906], for which the “Toxicity % Inhibition at 100 μM (1 dose)” value with Huh-Luc-Neo cells was 14.0%. Also, the IC50 in data set [2] (Hepatitis C virus) was 2.69 µM.
Take `Cn1cc(C#CC(C)(C)C)c(-c2cc([N+](=O)[O-])ccc2NC(=O)COc2ccccc2)n1` [VQ_36907]: the “Toxicity % Inhibition at 100 μM (1 dose)” value in the data set on Huh-Luc-Neo cells came out at 34.7%. The IC50 in data set [2] was determined as 0.2 µM.
For `Cn1cc(C#CC(C)(C)C)c(-c2cc([N+](=O)[O-])ccc2NC(=O)COc2ccccc2)n1` [VQ_36908], in that order: 22.7% and 1.72 µM.
